Source: patent US20220110949A1, “A 19-NOR C3,3-DISUBSTITUTED C21-N-PYRAZOLYL STEROID AND METHODS OF USE THEREOF” (Sage Therapeutics, Inc., priority 2017, published 2022)
Marks after values point to notes of the source that are not given here.

Key:
[1] = test system: healthy adults, 5-hour phase advance model of insomnia; assay: Double-blind, placebo-controlled 3-way crossover study; polysomnography (PSG) and subjective sleep measures in a 5-hour phase advance model of insomnia; assay type: in vivo, human; set-up: LPS decrease from baseline: dose or concentration left out as unconfirmed; conditions: for LPS (min), Median / NAW, Median / SE (%) (sleep efficiency), Median / TST (min), Median / WASO (min), Median / mDURAW (min), Median: PSG; for decrease in median duration of awakenings from baseline: baseline 9.364, awakenings in minutes; for TST median change (increase) from baseline: baseline median 317.00 minutes; for Sleep efficiency (SE) increase from baseline (median): median at baseline 66.042%; for WASO median change from baseline: median at baseline 134.00 minutes; for Subjective Sleep Quality (sSQ) Median (min, max): scale of 1 (poor) to 10 (excellent)
Text: Example 1. A Randomized, Double-Blind, Multiple Dose, 3-Way Crossover, Exploratory Study to Assess the Pharmacodynamic Effects of Compound 1 Capsules in Healthy Adults Using a 5-Hour Phase Advance Model of Insomnia
Sleep efficiency, defined as the percentage of time in bed spent asleep, as determined by polysomnography (PSG).
This is a double-blind, placebo-controlled, 3-way crossover study (Treatment Periods 1, 2, and 3), followed by an open-label administration of Compound 1 for pharmacokinetic purposes (Treatment Period 4). Subjects are expected to participate in Treatment Periods 1, 2 and 3. These subjects may continue into Treatment Period 4. If necessary, de novo subjects may also be included in Treatment Period 4 (see FIG. 2).
Subjects who meet the sleep diary continuation criteria will return for Visit 2 (Day −7) for a one-night PSG qualification visit. The PSG qualification visit (Visit 2) will begin on Study Day −7 and will continue to Study Day −6. The CRC will determine the median habitual bedtime from their sleep diary. Subjects should arrive at the clinic about 7 hours prior to their habitual bedtime for the one-night PSG qualification visit. Subjects will receive a standard meal and be prepared for overnight PSG recording. Lights out and PSG recording will begin five hours (±30 minutes) earlier than their mean habitual bedtime. Subjects will be required to remain in bed for eight hours, after which time the PSG recording will end, lights will turn on, and subjects will be awakened if asleep. Subjects will complete a Post Sleep Questionnaire about their subjective sleep thirty minutes after the end of the recording. Subjects will be discharged after all morning assessments have been completed at the discretion of the investigator. Subjects will have the option to remain in the clinic (e.g., to sleep at the clinic) until 9 AM.
Treatment Period 1 (Visit 3) begins on Study Day 1 and continues till Study Day 2. Subjects should arrive at the clinic approximately 7 hours prior to their habitual bedtime. Eligibility criteria will be confirmed and subjects will be randomized (1:1:1:1:1:1) to one of six possible treatment sequences (see FIG. 1). Predose assessments will be conducted. Subjects will receive a standard meal and be prepared for overnight PSG recording. Thirty minutes (±15 minutes) prior to lights out, blinded study drug (30 mg Compound 1, 45 mg Compound 1, or placebo) will be administered with food. Lights out and the PSG recording will begin five hours (±30 minutes) prior to their habitual bedtime. Subjects will be required to remain in bed for eight hours, after which time the lights will turn on, and subjects will be awakened if asleep. The PSG recording will end after 5 minutes (±1 minute) of quiet wakefulness is recorded. Subjects should complete a Post Sleep Questionnaire 30 minutes after the end of the recording. Post-PSG safety assessments will be conducted per the Schedule of Assessments. […] Subjects will have the option to remain in the clinic (e.g., to sleep at the clinic) until 9:00 AM.
Treatment Period 2 (Visit 4, Study Days 8 to 9) and Treatment Period 3 (Visit 5, Study Days 15 to 16) will follow similar procedures. Subjects will resume normal sleep patterns and maintain a sleep diary during the washout periods between treatments.
For Treatment Periods 1, 2, and 3, each subject will receive a single dose of study drug (30 mg Compound 1, 45 mg Compound 1, or placebo) on 3 separate visits; each subject will receive each dose level or placebo once. Study subjects who participate in Treatment Period 4 will receive one additional single dose of Compound 1 (30 mg) during one separate study visit.
The Efficacy Set will include all subjects in the Safety Set who have post-dose PSG data. Sleep efficiency will be analyzed using a mixed effects model for repeated measures (MMRM); the model will include treatment, treatment sequence, and period as fixed effects, with adjustment for screening sleep efficiency. […]

[2] = test system: healthy adults; assay: Safety and tolerability (adverse events) in the study of Example 1; assay type: in vivo, human; conditions: single dose 30 mg or 45 mg
Text: Frequency, type, severity of adverse events; changes in vital sign assessments, clinical laboratory data, electrocardiogram (ECG) parameters, suicidality assessment via the Columbia Suicide Severity Rating Scale (C-SSRS), sleepiness assessment via Karolinska Sleepiness Scale (KSS), and psychomotor performance assessment via Digit Symbol Substitution Test (DSST)
The safety and tolerability of Compound 1 Capsules will be evaluated by frequency, type, and severity of adverse events; mean changes from baseline in clinical laboratory measures, vital signs, ECGs, suicidal ideation using the C-SSRS, sleepiness using the KSS, and psychomotor performance using the DSST.
Adverse events will be classified by type, incidence, severity, and causality. The overall incidence of adverse events will be summarized by Medical Dictionary for Regulatory Activities (MedDRA) system organ class and preferred term. Data for vital signs, clinical laboratory measurements, ECG, and concomitant medication usage will also be summarized. Suicidality data collected using the C-SSRS at baseline and at each visit during the active Treatment Period will be listed for all subjects. The C-SSRS listings will include behavior type and/or category for suicidal ideation and suicidal behavior of the C-SSRS. Out-of-range safety endpoints may be categorized as low or high, where applicable. […]

C[C@@]1(O)CC[C@H]2[C@H](CC[C@@H]3[C@@H]2CC[C@]2(C)[C@@H](C(=O)Cn4cc(C#N)cn4)CC[C@@H]32)C1 [Compound 1]
Latency to persistent sleep (LPS) (min), Median Difference from Placebo ([1]; 30 mg): -1.50 min | Mean Duration of Awakenings (mDURAW) (min), Median Difference from Placebo ([1]; 30 mg): −3.43** min | Number of Awakenings (NAW), Median Difference from Placebo ([1]; 30 mg): −1.00 | REM Sleep ([1]; 30 mg): 50.15 min | Sleep Efficiency (SE) (%), Median Difference from Placebo ([1]; 30 mg): 11.35* % | Stage N1 ([1]; 30 mg): 20.11 min | Stage N2 ([1]; 30 mg): 258.16 min | Stage N3 (SWS) ([1]; 30 mg): 68.38 min | Subjective Sleep Latency (sSL) (min) Median (min, max) ([1]; 30 mg): 15 (2, 240) min | Subjective TST (sTST) (min) Median (min, max) ([1]; 30 mg): 450.0 (40, 555) min | Subjective WASO (sWASO) (min) Median (min, max) ([1]; 30 mg): 10.0 (0, 120) min | Total sleep time (TST) (min), Median Difference from Placebo ([1]; 30 mg): 54.50* min | Wakefulness after sleep onset (WASO (min), Median Difference from Placebo) ([1]; 30 mg): −22.00* min | effect on REM sleep ([1]; 30 mg and 45 mg): did not disrupt REM sleep | LPS (min), Median ([1]; 30 mg single evening dose): 13.25 min | NAW, Median ([1]; 30 mg single evening dose): 8.00 | SE (%) (sleep efficiency), Median ([1]; 30 mg single evening dose): 84.64% | TST (min), Median ([1]; 30 mg single evening dose): 406.25 min | WASO (min), Median ([1]; 30 mg single evening dose): 55.00 min | mDURAW (min), Median ([1]; 30 mg single evening dose): 4.23 min | decrease in median duration of awakenings from baseline ([1]; 30 mg): 2.629 | TST median change (increase) from baseline ([1]; 30 mg): 85.25 min | Sleep efficiency (SE) increase from baseline (median) ([1]; 30 mg): 17.761% | WASO median change from baseline ([1]; 30 mg): -74.75 min | LPS decrease from median baseline ([1]; 30 mg, median baseline 28.50): 13.25 min | Subjective Sleep Quality (sSQ) Median (min, max) ([1]; 30 mg): 8.0 (5, 10) | Latency to persistent sleep (LPS) (min), Median Difference from Placebo ([1]; 45 mg): -1.00 min | Mean Duration of Awakenings (mDURAW) (min), Median Difference from Placebo ([1]; 45 mg): −1.50+ min | Number of Awakenings (NAW), Median Difference from Placebo ([1]; 45 mg): −2.00 | REM Sleep ([1]; 45 mg): 43.54 min | Sleep Efficiency (SE) (%), Median Difference from Placebo ([1]; 45 mg): 12.61* % | Stage N1 ([1]; 45 mg): 19.58 min | Stage N2 ([1]; 45 mg): 266.79 min | Stage N3 (SWS) ([1]; 45 mg): 74.71 min | Subjective Sleep Latency (sSL) (min) Median (min, max) ([1]; 45 mg): 10 (1, 60) min | Subjective TST (sTST) (min) Median (min, max) ([1]; 45 mg): 465.0 (0, 510) min | Subjective WASO (sWASO) (min) Median (min, max) ([1]; 45 mg): 5.0 (0, 300) min | Total sleep time (TST) (min), Median Difference from Placebo ([1]; 45 mg): 60.50* min | Wakefulness after sleep onset (WASO (min), Median Difference from Placebo) ([1]; 45 mg): −55.50* min | LPS (min), Median ([1]; 45 mg single evening dose): 14.25 min | NAW, Median ([1]; 45 mg single evening dose): 7.00 | SE (%) (sleep efficiency), Median ([1]; 45 mg single evening dose): 87.55% | TST (min), Median ([1]; 45 mg single evening dose): 420.25 min | WASO (min), Median ([1]; 45 mg single evening dose): 42.50 min | mDURAW (min), Median ([1]; 45 mg single evening dose): 3.67 min | decrease in median duration of awakenings from baseline ([1]; 45 mg): 4.261 | TST median change (increase) from baseline ([1]; 45 mg): 96.00 min | Sleep efficiency (SE) increase from baseline (median) ([1]; 45 mg): 20.000% | WASO median change from baseline ([1]; 45 mg): -75.25 min | Subjective Sleep Quality (sSQ) Median (min, max) ([1]; 45 mg): 9.0 (6, 10) | LPS decrease from baseline ([1]; median baseline 28.50): 14.50 min | impact on latency to persistent sleep (LPS) ([1]; single dose capsule of 30 mg or 45 mg in the evening): did not impact | intensity of adverse events [2]: mild | serious or severe adverse events [2]: no serious or severe adverse events were observed
